Results from the CheMixHub ionic liquid set.
± gives the uncertainty stated by the source.

Experiment: xn = mol fraction of the nth substance listed

Compound CCCC(=O)O + CC(CC(C)(C)C)CP(=O)([O-])CC(C)CC(C)(C)C.CCCCCCCCCCCCCC[P+](CCCCCC)(CCCCCC)CCCCCC has a viscosity (298 K, 100 kPa, x2 = 0.9022) of 950 ± 110 mPa·s.

In the case of CCCC(=O)O + CC(CC(C)(C)C)CP(=O)([O-])CC(C)CC(C)(C)C.CCCCCCCCCCCCCC[P+](CCCCCC)(CCCCCC)CCCCCC + O, the viscosity (298 K, 100 kPa, x2 = 0.09014, x1 = 0.601) is reported as 53 mPa·s, the viscosity (298 K, 100 kPa, x2 = 0.09759, x1 = 0.6041) is reported as 54 mPa·s and the viscosity (298 K, 100 kPa, x2 = 0.1129, x1 = 0.5867) is reported as 83 ± 13 mPa·s. The viscosity (310 K, 100 kPa, x2 = 0.08641, x1 = 0.594) was 30 mPa·s, the viscosity (310 K, 100 kPa, x2 = 0.1138, x1 = 0.593) was 47 ± 10 mPa·s and the viscosity (310 K, 100 kPa, x2 = 0.1346, x1 = 0.5734) was 58 ± 15 mPa·s. For the same compound, the viscosity (310 K, 100 kPa, x2 = 0.1366, x1 = 0.07313) was 82 ± 12 mPa·s, the viscosity (310 K, 100 kPa, x2 = 0.1673, x1 = 0.1732) was 84 ± 11 mPa·s and the viscosity (310 K, 100 kPa, x2 = 0.1882, x1 = 0.4901) was 87 ± 16 mPa·s. The viscosity (310 K, 100 kPa, x2 = 0.1908, x1 = 0.2923) was 90 ± 10 mPa·s, the viscosity (310 K, 100 kPa, x2 = 0.1962, x1 = 0.4196) was 91 ± 13 mPa·s and the viscosity (318 K, 100 kPa, x2 = 0.08808, x1 = 0.5881) was 24 mPa·s. It also gave a viscosity (318 K, 100 kPa, x2 = 0.1141, x1 = 0.5826) of 35 mPa·s and a viscosity (318 K, 100 kPa, x2 = 0.1336, x1 = 0.5507) of 44 ± 15 mPa·s.

C[N+](C)(C)CCO.O=S(=O)([N-]S(=O)(=O)C(F)(F)F)C(F)(F)F + CC(O)CO gave a viscosity (313.15 K, 101 kPa, x2 = 0) of 56.4 ± 2.1 mPa·s, a viscosity (313.15 K, 101 kPa, x2 = 0.4786) of 28.6 ± 1.6 mPa·s and a viscosity (318.15 K, 101 kPa, x2 = 0.4786) of 23.6 ± 1.4 mPa·s. It also gave a viscosity (328.15 K, 101 kPa, x2 = 0.5867) of 15.4 ± 0.91 mPa·s, a viscosity (333.15 K, 101 kPa, x2 = 0) of 28.6 ± 1.6 mPa·s and a viscosity (338.15 K, 101 kPa, x2 = 0) of 24.6 ± 1.4 mPa·s. It also gave a viscosity (343.15 K, 101 kPa, x2 = 0.2189) of 14.68 ± 0.87 mPa·s, a viscosity (343.15 K, 101 kPa, x2 = 0.3834) of 12.15 ± 0.73 mPa·s and a viscosity (343.15 K, 101 kPa, x2 = 0.8744) of 6.61 ± 0.42 mPa·s. It also gave a viscosity (348.15 K, 101 kPa, x2 = 0) of 19.1 ± 1.1 mPa·s.

In the case of CCCCCCCCCCCCCC[P+](CCCC)(CCCC)CCCC.CCCCCCCCCCCCc1ccccc1S(=O)(=O)[O-] + CCCCCCCCCCCC, the viscosity (298.15 K, 101 kPa, x1 = 0.4402) is reported as 456 ± 24 mPa·s, the viscosity (303.15 K, 101 kPa, x1 = 0.4402) is reported as 325 ± 15 mPa·s and the viscosity (308.15 K, 101 kPa, x1 = 0.4844) is reported as 319 ± 15 mPa·s. The viscosity (313.15 K, 101 kPa, x1 = 0.354) was 127 ± 5 mPa·s, the viscosity (313.15 K, 101 kPa, x1 = 0.4402) was 180 ± 7 mPa·s and the viscosity (313.15 K, 101 kPa, x1 = 0.4844) was 236 ± 10 mPa·s. For the same compound, the viscosity (318.15 K, 101 kPa, x1 = 0.6789) was 596 ± 34 mPa·s, the viscosity (328.15 K, 101 kPa, x1 = 0.354) was 59.1 ± 1.8 mPa·s and the viscosity (328.15 K, 101 kPa, x1 = 0.6789) was 316 ± 15 mPa·s. For the same compound, the viscosity (338.15 K, 101 kPa, x1 = 0.354) was 39.1 ± 1.2 mPa·s, the viscosity (338.15 K, 101 kPa, x1 = 0.4844) was 65.1 ± 2 mPa·s and the viscosity (343.15 K, 101 kPa, x1 = 0.6789) was 133 ± 5 mPa·s. For the same compound, the viscosity (353.15 K, 101 kPa, x1 = 0.6789) was 86.1 ± 2.9 mPa·s.

Work on CCCCCCCCCCCCOS(=O)(=O)[O-].[Na+] + CCCCCCCCCCCCCCCC[N+](C)(C)C.[Br-] + O yielded an electrical conductivity (298.15 K, 101 kPa, frequency 0.001 MHz, x1 = 3e-08, x2 = 0) of 0.000305 ± 3.1e-05 S/m, an electrical conductivity (298.15 K, 101 kPa, frequency 0.001 MHz, x1 = 1.029e-05, x2 = 0) of 0.00434 ± 0.00043 S/m and an electrical conductivity (298.15 K, 101 kPa, frequency 0.001 MHz, x1 = 2.57e-05, x2 = 0) of 0.0104 ± 0.001 S/m. The electrical conductivity (298.15 K, 101 kPa, frequency 0.001 MHz, x1 = 3.699e-05, x2 = 0) was 0.0155 ± 0.0016 S/m, the electrical conductivity (298.15 K, 101 kPa, frequency 0.001 MHz, x1 = 5.034e-05, x2 = 0) was 0.0213 ± 0.0021 S/m and the electrical conductivity (298.15 K, 101 kPa, frequency 0.001 MHz, x1 = 6.37e-05, x2 = 0) was 0.0264 ± 0.0026 S/m. For the same compound, the electrical conductivity (298.15 K, 101 kPa, frequency 0.001 MHz, x1 = 7.295e-05, x2 = 0) was 0.0301 ± 0.003 S/m, the electrical conductivity (298.15 K, 101 kPa, frequency 0.001 MHz, x1 = 8.321e-05, x2 = 0) was 0.0349 ± 0.0035 S/m and the electrical conductivity (298.15 K, 101 kPa, frequency 0.001 MHz, x1 = 9.348e-05, x2 = 0) was 0.0392 ± 0.0039 S/m. The electrical conductivity (298.15 K, 101 kPa, frequency 0.001 MHz, x1 = 0.0001038, x2 = 0) was 0.0422 ± 0.0042 S/m, the electrical conductivity (298.15 K, 101 kPa, frequency 0.001 MHz, x1 = 0.000113, x2 = 0) was 0.0461 ± 0.0046 S/m and the electrical conductivity (298.15 K, 101 kPa, frequency 0.001 MHz, x1 = 0.0001212, x2 = 0) was 0.051 ± 0.0051 S/m. The electrical conductivity (298.15 K, 101 kPa, frequency 0.001 MHz, x1 = 0.0001315, x2 = 0) was 0.054 ± 0.0054 S/m, the electrical conductivity (298.15 K, 101 kPa, frequency 0.001 MHz, x1 = 0.0001418, x2 = 0) was 0.0567 ± 0.0057 S/m and the electrical conductivity (298.15 K, 101 kPa, frequency 0.001 MHz, x1 = 0.00015, x2 = 0) was 0.0607 ± 0.0061 S/m. The electrical conductivity (298.15 K, 101 kPa, frequency 0.001 MHz, x1 = 0.0001582, x2 = 0) was 0.0631 ± 0.0063 S/m, the electrical conductivity (298.15 K, 101 kPa, frequency 0.001 MHz, x1 = 0.0001665, x2 = 0) was 0.0649 ± 0.0065 S/m and the electrical conductivity (298.15 K, 101 kPa, frequency 0.001 MHz, x1 = 0.0001737, x2 = 0) was 0.0661 ± 0.0066 S/m. For the same compound, the electrical conductivity (298.15 K, 101 kPa, frequency 0.001 MHz, x1 = 0.000183, x2 = 0) was 0.0673 ± 0.0067 S/m, the electrical conductivity (298.15 K, 101 kPa, frequency 0.001 MHz, x1 = 0.0001944, x2 = 0) was 0.0683 ± 0.0068 S/m and the electrical conductivity (298.15 K, 101 kPa, frequency 0.001 MHz, x1 = 0.0002036, x2 = 0) was 0.0701 ± 0.007 S/m. It also gave an electrical conductivity (298.15 K, 101 kPa, frequency 0.001 MHz, x1 = 0.000214, x2 = 0) of 0.0713 ± 0.0071 S/m, an electrical conductivity (298.15 K, 101 kPa, frequency 0.001 MHz, x1 = 0.0002222, x2 = 0) of 0.0737 ± 0.0074 S/m and an electrical conductivity (298.15 K, 101 kPa, frequency 0.001 MHz, x1 = 0.0002315, x2 = 0) of 0.075 ± 0.0075 S/m. For the same compound, the electrical conductivity (298.15 K, 101 kPa, frequency 0.001 MHz, x1 = 0.0002408, x2 = 0) was 0.0771 ± 0.0077 S/m, the electrical conductivity (298.15 K, 101 kPa, frequency 0.001 MHz, x1 = 0.0002521, x2 = 0) was 0.0792 ± 0.0079 S/m and the electrical conductivity (298.15 K, 101 kPa, frequency 0.001 MHz, x1 = 0.0002625, x2 = 0) was 0.0801 ± 0.008 S/m. It also gave an electrical conductivity (298.15 K, 101 kPa, frequency 0.001 MHz, x1 = 0.0002738, x2 = 0) of 0.0823 ± 0.0082 S/m and an electrical conductivity (298.15 K, 101 kPa, frequency 0.001 MHz, x1 = 0.0002862, x2 = 0) of 0.0841 ± 0.0084 S/m.

With CCCCCCCCCCCC[N+](C)(C)C.[Br-] + CCCCCCCCCCCCCCCC[n+]1ccn(C)c1.[Cl-] + O the electrical conductivity (303.15 K, 100 kPa, frequency 0.002 MHz, x2 = 0, x1 = 0.0001836) was 0.105 ± 0.0022 S/m, the electrical conductivity (313.15 K, 100 kPa, frequency 0.002 MHz, x2 = 0, x1 = 0.0003475) was 0.207 ± 0.0043 S/m and the electrical conductivity (323.15 K, 100 kPa, frequency 0.002 MHz, x2 = 0, x1 = 0.0001544) was 0.129 ± 0.0026 S/m.

For CCCCCCCCCC(=O)O + CCCCCCCCCCCCCC[P+](CCCCCC)(CCCCCC)CCCCCC.[Cl-], the viscosity (293 K, 100 kPa, x2 = 0.3333) was 350 ± 140 mPa·s, the viscosity (298 K, 100 kPa, x2 = 0.3333) was 260 ± 110 mPa·s and the viscosity (318 K, 100 kPa, x2 = 0.3333) was 94 ± 38 mPa·s. It also gave a viscosity (328 K, 100 kPa, x2 = 0.3333) of 63 ± 25 mPa·s and a viscosity (333 K, 100 kPa, x2 = 0.3333) of 53 ± 21 mPa·s.
